Results from DBAASP.
In brackets after ≈: the same amount, converted by molar mass.

Key:
Assay in all cases: ≥ marks a high value that may be exact or a test limit, other limits are often not marked, values filed in µg/mL are converted to µM
[1] = test system: Bacillus subtilis DELTA
[2] = test system: Candida parapsilosis
[3] = test system: Escherichia coli DH5alpha
[4] = test system: Pseudomonas aeruginosa PAO1
[5] = test system: Zymomonas mobilis ATCC 10988
[6] = test system: Corynebacterium glutamicum ATCC 13032
[7] = test system: Escherichia coli ATCC 25922
[8] = test system: Escherichia coli HB101
[9] = test system: Pseudomonas aeruginosa ATCC 27853
[10] = test system: Staphylococcus aureus ATCC 9144
[11] = test system: Klebsiella pneumoniae ATCC 700603
[12] = test system: Staphylococcus aureus ATCC 29213
[13] = test system: Staphylococcus aureus ATCC 33591
[14] = test system: Staphylococcus aureus ATCC 700699
[15] = test system: Bacillus cereus AS1.126
[16] = test system: Enterobacter cloacae CGMCC 1.58
[17] = test system: Enterococcus faecalis CGMCC 1.595
[18] = test system: Enterococcus faecium CGMCC 1.2334
[19] = test system: Escherichia coli AS1.349
[20] = test system: Klebsiella pneumoniae subsp. pneumoniae CGMCC 1.176
[21] = test system: Proteus mirabilis CICC 22931
[22] = test system: Pseudomonas aeruginosa CGMCC 1.860
[23] = test system: Staphylococcus aureus AS1.72
[24] = test system: Staphylococcus epidermidis CICC 23664
[25] = test system: Clavibacter michiganensis subsp. michiganensis DSM 46294
[26] = test system: Pectobacterium carotovorum subsp. carotovorum DSM 30168
[27] = test system: Pseudomonas corrugata DSM 7228
[28] = test system: Pseudomonas syringae pv. syringae DSM 10604
[29] = test system: Pseudomonas syringae pv. tomato DC3000
[30] = test system: Staphylococcus aureus 90857
[31] = test system: Xanthomonas vesicatoria DSM 50861
[32] = test system: Escherichia coli KCTC 2223
[33] = test system: Micrococcus luteus ATCC 10240
[34] = test system: Staphylococcus aureus ATCC 15752
[35] = test system: Escherichia coli W160-37
[36] = test system: Staphylococcus aureus

With CC[C@H](C)[C@H](NC(=O)[C@H](CCCCN)NC(=O)[C@H](CCCCN)NC(=O)[C@H](CC(C)C)NC(=O)CN)C(=O)N[C@H](C(=O)N[C@@H](CCCCN)C(=O)N[C@@H](CCCCN)C(=O)N[C@@H](CC(C)C)C(=O)N[C@@H](CC(C)C)C(N)=O)[C@@H](C)CC [GLKKIIKKLL] the MIC [1] was 13 µM (≈ 15 µg/mL), the MIC [2] was 17.3 µM (≈ 20 µg/mL) and the MIC [3] was ≥ 173 µM. For the same compound, the MIC [4] was 13 µM (≈ 15 µg/mL) and the MIC [5] was 17.3 µM (≈ 20 µg/mL).
Work on CC[C@H](C)[C@H](NC(=O)[C@@H]1CCCN1C(=O)[C@H](CCCCN)NC(=O)[C@@H]1CCCN1C(=O)[C@H](CCCN=C(N)N)NC(=O)CNC(=O)[C@@H]1CCCN1C(=O)[C@H](Cc1ccccc1)NC(=O)[C@@H]1CCCN1C(=O)[C@H](CCCN=C(N)N)NC(=O)[C@@H]1CCCN1C(=O)[C@H](CCCN=C(N)N)NC(=O)CN)C(=O)N[C@@H](Cc1ccccc1)C(=O)N[C@@H](CCCN=C(N)N)C(=O)N1CCC[C@H]1C(=O)N[C@@H](CCCN=C(N)N)C(=O)O [GRPRPFPGRPKPIFRPR] yielded an MIC [6] of 3.1 µM (≈ 6.3 µg/mL), an MIC [7] of 70.7 µM (≈ 144 µg/mL) and an MIC [8] of 25 µM (≈ 50.8 µg/mL). For the same compound, the MIC [9] was 70.7 µM (≈ 144 µg/mL) and the MIC [10] was ≥ 100 µM.
With CC[C@H](C)[C@H](NC(=O)[C@H](CC(=O)O)NC(=O)[C@H](CCCCN)NC(=O)[C@H](C)NC(=O)[C@H](C)NC(=O)CNC(=O)[C@H](C)NC(=O)[C@H](CC(C)C)NC(=O)[C@@H](NC(=O)[C@H](CC(=O)O)NC(=O)[C@@H](NC(=O)[C@@H](NC(=O)CN)C(C)C)C(C)C)[C@@H](C)CC)C(=O)N[C@@H](C)C(=O)NCC(=O)N[C@@H](Cc1cnc[nH]1)C(=O)N[C@@H](CC(C)C)C(=O)N[C@@H](C)C(=O)N[C@@H](CO)C(=O)N[C@@H](CCCCN)C(=O)N[C@H](C(=O)N[C@@H](CCSC)C(=O)N[C@@H](CC(N)=O)C(=O)N[C@@H](CCCCN)C(=O)N[C@@H](CC(C)C)C(N)=O)C(C)C [GVVDILAGAAKDIAGHLASKVMNKL] the MIC [7] was > 100 µM, the MIC [11] was > 100 µM and the MIC [9] was > 100 µM. The MIC [12] was > 100 µM, the MIC [13] was ≥ 100 µM and the MIC [14] was ≥ 100 µM.
For CC[C@H](C)[C@H](NC(=O)[C@H](CC(=O)O)NC(=O)[C@H](CCCCN)NC(=O)[C@H](C)NC(=O)[C@H](C)NC(=O)CNC(=O)[C@H](CCCCN)NC(=O)[C@H](CC(C)C)NC(=O)[C@@H](NC(=O)[C@H](CC(=O)O)NC(=O)[C@@H](NC(=O)[C@@H](NC(=O)CN)C(C)C)C(C)C)[C@@H](C)CC)C(=O)N[C@@H](C)C(=O)NCC(=O)N[C@@H](Cc1cnc[nH]1)C(=O)N[C@@H](CC(C)C)C(=O)N[C@@H](C)C(=O)N[C@@H](CO)C(=O)N[C@@H](C)C(=O)N[C@H](C(=O)N[C@@H](CCSC)C(=O)N[C@@H](CC(N)=O)C(=O)N[C@@H](CCCCN)C(=O)N[C@@H](CC(C)C)C(N)=O)C(C)C [GVVDILKGAAKDIAGHLASAVMNKL], the MIC [7] was 100 µM (≈ 249 µg/mL), the MIC [11] was > 100 µM and the MIC [9] was > 100 µM. The MIC [12] was > 100 µM, the MIC [13] was ≥ 100 µM and the MIC [14] was ≥ 100 µM.
CC[C@H](C)[C@H](N)C(=O)N[C@@H](CCCCN)C(=O)N[C@@H](CCCCN)C(=O)N[C@H](C(=O)N[C@@H](Cc1c[nH]c2ccccc12)C(=O)N[C@@H](CO)C(=O)N[C@@H](CCCCN)C(=O)N[C@H](C(=O)N[C@@H](CCCCN)C(=O)N[C@@H](CCCCN)C(=O)N[C@@H](Cc1c[nH]c2ccccc12)C(=O)N[C@@H](Cc1c[nH]c2ccccc12)C(=O)N[C@@H](CCCCN)C(=O)O)[C@@H](C)CC)[C@@H](C)CC [IKKIWSKIKKWWK] was tested, and the MIC [15] was 6.25 µM (≈ 11.1 µg/mL), the MIC [16] was ≥ 100 µM and the MIC [17] was 5 µM (≈ 8.86 µg/mL). The MIC [18] was 12.5 µM (≈ 22.2 µg/mL), the MIC [19] was 2.5 µM (≈ 4.43 µg/mL) and the MIC [20] was ≥ 100 µM. For the same compound, the MIC [21] was ≥ 100 µM, the MIC [22] was 4.69 µM (≈ 8.31 µg/mL) and the MIC [23] was 2.5 µM (≈ 4.43 µg/mL). It also gave an MIC [24] of 2.5 µM (≈ 4.43 µg/mL).
Compound CC[C@H](C)[C@H](NC(=O)[C@H](CC(C)C)NC(=O)[C@H](CCCCN)NC(=O)[C@H](CCCCN)NC(=O)[C@H](CC(C)C)NC(=O)[C@@H](NC(=O)[C@H](CCCCN)NC(=O)[C@H](CCCCN)NC(=O)[C@@H](NC(=O)[C@H](Cc1ccccc1)NC(=O)[C@H](CCCN=C(N)N)NC(=O)[C@@H](N)CC(C)C)[C@@H](C)CC)[C@@H](C)CC)C(N)=O [LRFIKKILKKLI] has an MIC [25] of 0.165 µM (≈ 0.25 µg/mL), an MIC [26] of 1.65 µM (≈ 2.5 µg/mL) and an MIC [27] of 1.65 µM (≈ 2.5 µg/mL). The MIC [28] was 0.165 µM (≈ 0.25 µg/mL), the MIC [29] was 0.661 µM (≈ 0.999 µg/mL) and the MIC [30] was 0.625 µM (≈ 0.945 µg/mL). It also gave an MIC [31] of 0.0661 µM (≈ 0.0999 µg/mL).
CC[C@H](C)[C@H](NC(=O)[C@H](CCCCN)NC(=O)[C@@H](NC(=O)[C@@H](N)CC(N)=O)[C@@H](C)CC)C(=O)N[C@@H](CO)C(=O)NCC(=O)N[C@@H](CCCCN)C(=O)N[C@@H](Cc1c[nH]c2ccccc12)C(=O)N[C@@H](CCCCN)C(=O)N[C@@H](C)C(=O)N[C@@H](CCC(N)=O)C(=O)N[C@@H](CCCCN)C(=O)N[C@@H](CCCN=C(N)N)C(=O)N[C@@H](Cc1ccccc1)C(=O)N[C@@H](CC(C)C)C(=O)N[C@@H](CCCCN)C(=O)O [NIKISGKWKAQKRFLK] was tested, and the MIC [32] was ≥ 32 µM, the MIC [33] was ≥ 32 µM and the MIC [34] was ≥ 32 µM.
In the case of CC[C@H](C)[C@H](NC(=O)[C@H](Cc1c[nH]c2ccccc12)NC(=O)[C@H](CCCCN)NC(=O)[C@H](CO)NC(=O)[C@H](CC(C)C)NC(=O)[C@H](Cc1ccccc1)NC(=O)[C@H](CCCCN)NC(=O)[C@H](CC(C)C)NC(=O)[C@H](CCCCN)NC(=O)[C@@H]1CCCN1)C(=O)NCC(=O)O [PKLKFLSKWIG], the MIC [35] is reported as ≥ 154 µM and the MIC [36] is reported as 154 µM (≈ 203 µg/mL).
For CC[C@H](C)[C@H](NC(=O)[C@@H]1CCCN1C(=O)[C@H](CCCCN)NC(=O)[C@@H]1CCCN1C(=O)[C@H](CCCN=C(N)N)NC(=O)CNC(=O)[C@@H]1CCCN1C(=O)[C@H](Cc1ccccc1)NC(=O)[C@@H]1CCCN1C(=O)[C@H](CCCN=C(N)N)NC(=O)[C@@H]1CCCN1)C(=O)N[C@@H](Cc1ccccc1)C(=O)N[C@@H](CCCN=C(N)N)C(=O)N1CCC[C@H]1C(=O)N[C@@H](CCCN=C(N)N)C(=O)O [PRPFPGRPKPIFRPR], the MIC [6] was 12.5 µM (≈ 22.7 µg/mL), the MIC [7] was > 100 µM and the MIC [8] was ≥ 100 µM. The MIC [9] was > 100 µM and the MIC [10] was ≥ 100 µM.
For CC(C)C[C@H](NC(=O)[C@H](CCCCN)NC(=O)[C@H](CCCCN)NC(=O)[C@H](CCCCN)NC(=O)[C@@H](N)CCCN=C(N)N)C(=O)N[C@@H](CCCCN)C(=O)N[C@H](C(=O)N[C@H](C(=O)N[C@@H](CCCCN)C(=O)N[C@@H](CCCN=C(N)N)C(=O)N[C@@H](CC(C)C)C(=O)N[C@H](C(N)=O)C(C)C)C(C)C)C(C)C [RKKKLKVVKRLV], the MIC [25] was 6.69 µM (≈ 9.99 µg/mL), the MIC [26] was 6.69 µM (≈ 9.99 µg/mL) and the MIC [27] was 6.69 µM (≈ 9.99 µg/mL). The MIC [28] was 3.34 µM (≈ 5 µg/mL), the MIC [29] was 0.669 µM (≈ 0.999 µg/mL) and the MIC [30] was ≥ 62.5 µM. For the same compound, the MIC [31] was 6.69 µM (≈ 9.99 µg/mL).
